Here are results for eight compounds from patent publication US5376684A, “Aminoalkanephosphinic acids and salts thereof” (Ciba-Geigy Corporation, priority 1991, dated 1994).

Experiment [1] has as its system pyramidal cells. Nature of the experiment: Penicillin-induced "epileptic" hippocampus section preparation. The format is cell-based. To be noted: concentration of 6 μM. As for the experimental part: The novel GABAB -antagonists according to the invention interact at the GABAB -receptor with IC50 values of approximately 10^-8 M (mol/l) and above in the corticocerebral membranes of rats. […] The antagonism towards baclofen can also be shown in vitro in electrophysiological models, for example in the penicillin-induced "epileptic" hippocampus section preparation in which baclofen in a concentration of 6 μM (micromol/liter) inhibits "epilepsy-like" discharges from pyramidal cells. The compounds according to the invention act as antagonists of baclofen action in concentrations of about 10 to about 100 μM (micromol/liter). In vivo the antagonism can be shown by ionto-phoresis of baclofen in rat cerebral cortex and by systemic use of antagonists in doses of from 10 to 100 mg/kg. In doses of about 30 mg/kg, antagonism occurs towards the muscle-relaxant action of baclofen, which is measured in the Rotarod model.

Experiment [2] concerns epileptic Wistar rats. To be noted: cited from earlier work.

Take `NCC(CC(=O)O)c1ccc(Cl)cc1` (centres unmarked) [baclofen]: the “effect on "epilepsy-like" discharges from pyramidal cells” value in experiment [1] was “inhibits”.

In the case of `CCC1(C)CC(=O)NC1=O` (centres unmarked) [ethosuximide], the “doses that reduce the spike and wave discharges in dependence upon dosage” value in experiment [2] was no less than 25 mg/kg.

Consider `CN1C(=O)OC(C)(C)C1=O` [trimethadione], for which the “doses that reduce the spike and wave discharges in dependence upon dosage” value in experiment [2] is on record as no less than 50 mg/kg.

Turning to `CCCC(CCC)C(=O)[O-].[Na+]` [sodium valproate], the “doses that reduce the spike and wave discharges in dependence upon dosage” value in experiment [2] is no less than 50 mg/kg.

For the compound `CCC1(c2ccccc2)C(=O)NC(=O)NC1=O` [Phenobarbitone], the “effect at 20 mg/kg” value in experiment [2] (20 mg/kg) is listed as “ineffective”.

`CN1C(=O)CN=C(c2ccccc2)c2cc(Cl)ccc21` [diazepam]: the “doses that reduce the spike and wave discharges in dependence upon dosage” value in experiment [2] is listed as no less than 0.5 mg/kg.

As for `NC(=O)N1c2ccccc2C=Cc2ccccc21` [Carbamazepine], in experiment [2], the “effect on spike and wave discharges / attacks” value is given as “ineffective or worsen the attacks at higher doses”.

For the compound `O=C1NC(=O)C(c2ccccc2)(c2ccccc2)N1` [phenytoin], the “effect on spike and wave discharges / attacks” value in experiment [2] is given as “ineffective or worsen the attacks at higher doses”.
